# Experiments:
# [1] = target: T1, human orexin 2 receptor (hOx2R) (Homo sapiens, UniProt O43614); assay: Calcium accumulation in cells (FLIPR), antagonism of orexin A, hOx2R; format: cell-based; details: cells expressing human orexin 2 receptor; IC50 vs orexin A converted by Cheng and Prusoff correction
# T1 construct: expressed in transfected cells
# T1 sequence (O43614 1-444): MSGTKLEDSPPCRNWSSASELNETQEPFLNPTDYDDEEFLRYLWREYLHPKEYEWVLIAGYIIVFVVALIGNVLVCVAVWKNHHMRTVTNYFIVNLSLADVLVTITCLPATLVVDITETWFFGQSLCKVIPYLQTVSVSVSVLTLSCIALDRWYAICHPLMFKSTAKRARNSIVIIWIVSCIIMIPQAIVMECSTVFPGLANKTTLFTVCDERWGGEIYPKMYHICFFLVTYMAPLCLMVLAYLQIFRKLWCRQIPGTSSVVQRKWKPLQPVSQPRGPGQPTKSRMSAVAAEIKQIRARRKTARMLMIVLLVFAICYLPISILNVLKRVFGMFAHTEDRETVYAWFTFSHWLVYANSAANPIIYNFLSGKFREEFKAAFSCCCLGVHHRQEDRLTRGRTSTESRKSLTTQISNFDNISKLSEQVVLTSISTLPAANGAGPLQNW
# Summary of the method: (§1)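 Serum-starved receptor-expressing cells were loaded with Fluo-4-AM (2 μM) plus probenecid (0.1 mM) in HEPES buffer, pH 7.4, with 1% BSA, and Ca2+ fluorescence was read on FLIPR. Compounds (10^−9–10^−5 M) were added first, and orexin A was added one hour later to measure antagonism.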
# [2] = target: T2, human orexin 1 receptor (hOx1R) (Homo sapiens, UniProt O43613); assay: Calcium accumulation in cells (FLIPR), antagonism of orexin A, hOx1R; format: cell-based; details: for inhibition at 10 µM: measured at a concentration of 10 μM of compound (cells marked ^a); for Kd: cells expressing human orexin 1 receptor, IC50 vs orexin A converted by Cheng and Prusoff correction
# T2 construct: expressed in transfected cells
# T2 sequence (O43613 1-425): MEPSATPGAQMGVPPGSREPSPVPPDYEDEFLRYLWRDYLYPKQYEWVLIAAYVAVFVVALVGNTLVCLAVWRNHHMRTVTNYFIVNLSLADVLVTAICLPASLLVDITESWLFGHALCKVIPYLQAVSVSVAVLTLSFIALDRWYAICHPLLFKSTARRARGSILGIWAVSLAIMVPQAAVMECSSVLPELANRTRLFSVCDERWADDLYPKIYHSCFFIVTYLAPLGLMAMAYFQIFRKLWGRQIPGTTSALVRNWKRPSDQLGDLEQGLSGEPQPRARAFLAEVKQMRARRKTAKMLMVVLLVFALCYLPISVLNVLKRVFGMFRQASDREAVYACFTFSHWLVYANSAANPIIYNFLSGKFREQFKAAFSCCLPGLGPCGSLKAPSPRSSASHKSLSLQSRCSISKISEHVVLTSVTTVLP
# Summary of the method: as §1
# [3] = target: T2, human orexin 1 receptor (hOx1R); assay: Radioligand binding assay ([125I]orexin A competition), hOx1R; details: CHO or HEK cell membranes, 1 h room temperature
# Summary of the method: (§2)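 Membranes from CHO or HEK cells expressing the human receptor, incubated 1 h at room temperature with […] [125I]orexin A and compound in HEPES pH 7.5 buffer with BSA, MgCl2, CaCl2 and tween.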
# [4] = target: T1, human orexin 2 receptor (hOx2R); assay: Radioligand binding assay ([125I]orexin A competition), hOx2R; details: CHO or HEK cell membranes, 1 h room temperature
# Summary of the method: as §2
Compound,Kd [1] [nM],inhibition at 10 µM [2] [%],Kd [3] [nM],Kd [4] [nM],Kd [2] [nM]
"CN(C(=O)c1ccc2ccccc2c1)[C@H](CCNC(=O)c1ccccn1)Cc1ccc(F)cc1 [Example 58, Pyridine-2-carboxylic acid {(S)-4-(4-fluoro-phenyl)-3-[methyl-(naphthalene-2-carbonyl)-amino]-butyl}-amide]",1060,1,2300,3430,–
"COc1ccc(C(=O)N(C)[C@H](CCNC(=O)c2nc3ccccc3n2C)Cc2ccccc2)cc1OC [Example 80, 1-Methyl-1H-benzoimidazole-2-carboxylic acid {(S)-3-[(3,4-dimethoxy-benzoyl)-methyl-amino]-4-phenyl-butyl}-amide]",97,–,59,98,541
"COc1cc(F)cc(C(=O)N(C)[C@H](CCNC(=O)c2cccn2C)Cc2ccccc2)c1 [Example 105, 1-Methyl-1H-pyrrole-2-carboxylic acid {(S)-3-[(3-fluoro-5-methoxy-benzoyl)-methyl-amino]-4-phenyl-butyl}-amide]",7,–,286,12,811
"CN(C(=O)c1ccc2ccccc2c1)[C@H](CCNC(=O)c1nc2ccccc2n1C)Cc1ccc(Cl)cc1 [Example 50, 1-Methyl-1H-benzoimidazole-2-carboxylic acid {(S)-4-(4-chloro-phenyl)-3-[methyl-(naphthalene-2-carbonyl)-amino]-butyl}-amide]",59,–,783,1110,32
"CN(C(=O)c1ccc2c(c1)OCO2)[C@H](CCNC(=O)c1nccn1C)Cc1ccccc1 [Example 78, 1-Methyl-1H-imidazole-2-carboxylic acid {(S)-3-[(benzo[1,3]dioxole-5-carbonyl)-methyl-amino]-4-phenyl-butyl}-amide]",28,–,660,24,1470
"Cc1nc(C(=O)NCC[C@H](Cc2ccccc2)N(C)C(=O)c2ccc3c(c2)OCO3)c(-c2ccccc2F)s1 [Example 83, 5-(2-Fluoro-phenyl)-2-methyl-thiazole-4-carboxylic acid {(S)-3-[(benzo[1,3]dioxole-5-carbonyl)-methyl-amino]-4-phenyl-butyl}-amide]",3,–,54,21,42
"CCN(C(=O)c1cc(C(F)(F)F)cc(C(F)(F)F)c1)[C@H](CCNC(=O)c1ccccn1)Cc1ccccc1 [Example 10, Pyridine-2-carboxylic acid {(S)-3-[(3,5-bis-trifluoromethyl-benzoyl)-ethyl-amino]-4-phenyl-butyl}-amide]",27,–,3270,59,1360
"COc1cc(OC)cc(C(=O)N(C)[C@H](CCNC(=O)c2ccccn2)Cc2ccccc2)c1 [Example 41, Pyridine-2-carboxylic acid {(S)-3-[(3,5-dimethoxy-benzoyl)-methyl-amino]-4-phenyl-butyl}-amide]",196,–,1730,484,1600
"Cc1nc(C(=O)NCC[C@H](Cc2ccccc2)N(C)C(=O)c2ccccc2)c(-c2ccccc2F)s1 [Example 27, 5-(2-Fluoro-phenyl)-2-methyl-thiazole-4-carboxylic acid [(S)-3-(benzoyl-methyl-amino)-4-phenyl-butyl]-amide]",11,–,783,337,76
"CN(C(=O)c1cccc2ccccc12)[C@H](CCNC(=O)c1nc2ccccc2n1C)Cc1ccc(F)cc1 [Example 24, 1-Methyl-1H-benzoimidazole-2-carboxylic acid {(S)-4-(4-fluoro-phenyl)-3-[methyl-(naphthalene-1-carbonyl)-amino]-butyl}-amide]",5,–,1390,273,124
"CN(C(=O)c1ccc2c(c1)OCO2)[C@H](CCNC(=O)c1nc2ccccc2n1C)Cc1ccccc1 [Example 31, 1-Methyl-1H-benzoimidazole-2-carboxylic acid {(S)-3-[(benzo[1,3]dioxole-5-carbonyl)-methyl-amino]-4-phenyl-butyl}-amide]",43,–,164,410,57
"CN(C(=O)c1ccc2c(c1)CCN2)[C@H](CCNC(=O)c1ccccn1)Cc1ccccc1 [Example 23, 2,3-Dihydro-1H-indole-5-carboxylic acid {(S)-1-benzyl-3-[(pyridine-2-carbonyl)-amino]-propyl}-methyl-amide]",419,–,52,265,152
"CN(C(=O)c1ccc2c(c1)OCO2)[C@H](CCNC(=O)c1ccccn1)Cc1ccc(F)cc1 [Example 51, Pyridine-2-carboxylic acid [(S)-3-[(benzo[1,3]dioxole-5-carbonyl)-methyl-amino]-4-(4-fluoro-phenyl)-butyl]-amide]",794,16,3540,1150,–
"CN(C(=O)c1ccc2c(ccn2C)c1)[C@H](CCNC(=O)c1ccccn1)Cc1ccccc1 [Example 84, 1-Methyl-1H-indole-5-carboxylic acid {(S)-1-benzyl-3-[(pyridine-2-carbonyl)-amino]-propyl}-methyl-amide]",809,–,30,1330,50
"CN(C(=O)c1ccc2ccccc2c1)[C@@H](CCNC(=O)c1ccccn1)Cc1ccccc1 [Example 43, Pyridine-2-carboxylic acid {(R)-3-[methyl-(naphthalene-2-carbonyl)-amino]-4-phenyl-butyl}-amide]",203,–,2250,607,941
"CCCN(C(=O)c1cc(C(F)(F)F)cc(C(F)(F)F)c1)[C@H](CCNC(=O)c1ccccn1)Cc1ccccc1 [Example 22, Pyridine-2-carboxylic acid {(S)-3-[(3,5-bis-trifluoromethyl-benzoyl)-propyl-amino]-4-phenyl-butyl}-amide]",105,–,> 10000,214,1570
"C[C@H](CNC(=O)c1ccccn1)[C@H](Cc1ccccc1)N(C)C(=O)c1ccccc1 [Example 112, Pyridine-2-carboxylic acid [(2R,3S)-3-(benzoyl-methyl-amino)-2-methyl-4-phenyl-butyl]-amide]",498,–,477,1160,415
"CN(C(=O)c1cccc2ccccc12)[C@H](CCNC(=O)c1ccccn1)Cc1ccccc1 [Example 6, Pyridine-2-carboxylic acid {(S)-3-[methyl-(naphthalene-1-carbonyl)-amino]-4-phenyl-butyl}-amide]",57,–,25,20,31
"COc1ccc(C(=O)N(C)[C@H](CCNC(=O)c2ccccn2)Cc2ccccc2)cc1OC [Example 9, Pyridine-2-carboxylic acid {(S)-3-[(3,4-dimethoxy-benzoyl)-methyl-amino]-4-phenyl-butyl}-amide]",145,–,474,46,1400
"CN(C(=O)c1cc(C(F)(F)F)cc(C(F)(F)F)c1)C(CCNC(=O)c1ccc2c(ccn2C)c1)Cc1ccccc1 (stereo not drawn) [Example 60, 1-Methyl-1H-indole-5-carboxylic acid {3-[(3,5-bis-trifluoromethyl-benzoyl)-methyl-amino]-4-phenyl-butyl}-amide]",362,–,17500,3860,3470
"COc1cccc(C(=O)N(C)[C@H](CCNC(=O)c2ccccn2)Cc2ccccc2)c1 [Example 52, Pyridine-2-carboxylic acid {(S)-3-[(3-methoxy-benzoyl)-methyl-amino]-4-phenyl-butyl}-amide]",916,–,2420,963,466

# Source: patent US20100222396A1 (Novartis AG, priority 2009, published 2010)
